Here are results for 22 compounds from patent US9951046B2, “TRPA1 modulators” (Algomedix, Inc., priority 2014, dated 2018).

In one assay the target is T1, human TRPA1 (Homo sapiens, UniProt O75762).
T1 construct: expressed in transfected cells
In words: Cell-based functional intracellular calcium ([Ca2+]i) assay, Fluo-4/Fluo-8, FlexStation, challenge with reference TRPA1 agonist (FFA, AITC or 4-HNE). In a few lines:
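Doxycycline-induced (1 μg/ml) HEK293 expressing human TRPA1, with 5 μM ruthenium red during induction, loaded with Fluo-4 or Fluo-8 plus 2 mM probenecid; FlexStation read at 20-25° C, sometimes with 0.1% BSA.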
(In general: Calcium flux is commonly read through the fluorescence of an indicator in the cells.)

Assay [1] relates to neuropathic pain after L5-L6 spinal nerve injury. Briefly: Spinal nerve ligation (SNL, Chung) neuropathic pain model, von Frey test. Format: in vivo, rat. To be noted: 30 mg/kg i.p.; for % MPE (% Maximum Possible Effect): rat, 18 days after L5-L6 spinal nerve injury, von Frey test 2 hrs post-dose, number of experiments in brackets; for anti-allodynic effect on paw withdrawal threshold and % MPE: rats 18 days after L5-L6 spinal nerve injury, mechanical allodynia 2 hrs post-dose, p<0.001 vs vehicle. The text has this:
This example describes the use of an animal model for testing compounds of the disclosure for their ability to reduce neuropathic pain. For the neuropathic pain model (spinal nerve ligation, SNL) also known as the Chung model, rats are anesthetized with isoflurane and placed on a heating pad. Using aseptic techniques, the L5 and L6 spinal nerves are exposed, ligated and transected (Kim, S. H. and Chung, J. […] Muscle and skin are closed with 4-0 Polydiaxone and wound clips, respectively. Allodynia is assessed 2-4 weeks post SNL surgery and only rats that develop allodynia as defined by a significant decrease in their mechanical threshold using von Frey filaments are used. Tactile allodynia is assessed with calibrated von Frey filaments (Stoelting Co, Wood Dale, Ill.), using an up-down paradigm (Chaplan, S. R., et al. (1994) J. Neurosci. Methods, 53 (1): 55-63). […] Test compounds are administered to the surgically treated rats either orally or I.P, and pain measurements are assessed at post-dosing intervals that correspond to near-maximal peak plasma concentrations for the test compound and specific mode of administration. The action of test compounds 175, 180, and 198 was evaluated in the Chung model after surgery to induce neuropathy. […] (10 ml/kg) was administered as a positive control group. Vehicle and test compounds were dissolved in 10% DMSO, 20% Tween-80 and 40% PEG-400. On the day before treatment, the neuropathic pain basal response was measured by von Frey test and the rats were randomized based on PWT responses. A cut-off of <4.0 g was considered before selection of animals for treatment. On the day of treatment, the test compounds were administered at 30 mg/kg i.p. (10 ml/kg) dissolved in 10% DMSO, 20% Tween-80, 40% PEG-400. […] (10 ml/kg). The mechanical allodynia was measured at 2 hrs post-dose. Results for compound 175 are shown in FIGS. 1 and 2 where data are presented as paw withdrawal threshold (PWT in g) (FIG. 1) and percentage of maximal possible effect (% MPE) (FIG. 2). Each bar represents the mean±SEM of 8 rats.

For assay [2], the system named is paclitaxel-induced neuropathic pain. In words: Paclitaxel chemotherapy-induced neuropathic pain model, von Frey filaments. Format: in vivo. To be noted: rat paclitaxel model, 10 mg/kg i.p.; for % MPE for reversing paclitaxel induced neuropathic pain: mechanical allodynia (von Frey). From the text: Chemotherapy-induced peripheral neuropathy is one of the most serious complications of anti-cancer drug therapy. […] The TRPA1 antagonist, AD_09, has been reported to reduce neuropathic pain in the oxaliplatin model (Nativi, C, et al. (2013) Scientific Reports 3, 2005, 1-10.)
The studies described below provide a method to test compounds of the present invention in the established rat model of paclitaxel-induced neuropathic pain (Flatters, S J and Bennett, G, Pain (2004) 109:150-161) and provide evidence for efficacy for one compound of the present invention. In this procedure, male Sprague-Dawley rats received i.p. injections of 1 mg/kg paclitaxel or vehicle solution every other day for a total of 4 injections (Day 0, 2, 4 and 6). After receiving injections on even-number experimental days, the rats were tested for mechanical and cold allodynia on odd-number experimental days. After the full development of allodynia after the last paclitaxel injection on day 11, one subgroup of the rats (7 rats per treatment group) received an oral dose or i.p. injection of compound of the present invention (e.g., 1, 3, 10 or 30 mg/kg) or its vehicle solution. On the day of treatment, the test compound was administered at 10 mg/kg i.p. (2 ml/kg) dissolved in 10% DMSO, 20% Tween-80, 40% PEG-400. Additional test groups included vehicle control and gabapentin at 10, 30 and 100 mg/kg i.p. (2 ml/kg). The mechanical allodynia was measured at 2 hrs post-dose for compound 271. Mechanical allodynia was measured using the Von Frey filaments to determine the paw withdrawal threshold for each animal and assess the effects of the test compound-s to reduce pain. Rats were tested for mechanical and/or cold allodynia 1 hour after dosing.
Rats can be tested at approximately 2 hour intervals thereafter (time interval dependent on the effect) as long as the effect of TRPA1 antagonist lasts. In some cases, more than one treatment of the compound of the present invention (TRPA1 antagonist) can be given before or after the effect of the previous dose subsides to provide repetitive dosing regimens.

Setting [3] is: HEK293 cells expressing human TRPA1, IC50 class after addition of reference TRPA1 agonist (FFA, AITC or 4-HNE), read-out: human TRPA1-HEK Activity.

Like-named read-outs stand apart in the source and are kept apart here.

T1 sequence (O75762 whole entry): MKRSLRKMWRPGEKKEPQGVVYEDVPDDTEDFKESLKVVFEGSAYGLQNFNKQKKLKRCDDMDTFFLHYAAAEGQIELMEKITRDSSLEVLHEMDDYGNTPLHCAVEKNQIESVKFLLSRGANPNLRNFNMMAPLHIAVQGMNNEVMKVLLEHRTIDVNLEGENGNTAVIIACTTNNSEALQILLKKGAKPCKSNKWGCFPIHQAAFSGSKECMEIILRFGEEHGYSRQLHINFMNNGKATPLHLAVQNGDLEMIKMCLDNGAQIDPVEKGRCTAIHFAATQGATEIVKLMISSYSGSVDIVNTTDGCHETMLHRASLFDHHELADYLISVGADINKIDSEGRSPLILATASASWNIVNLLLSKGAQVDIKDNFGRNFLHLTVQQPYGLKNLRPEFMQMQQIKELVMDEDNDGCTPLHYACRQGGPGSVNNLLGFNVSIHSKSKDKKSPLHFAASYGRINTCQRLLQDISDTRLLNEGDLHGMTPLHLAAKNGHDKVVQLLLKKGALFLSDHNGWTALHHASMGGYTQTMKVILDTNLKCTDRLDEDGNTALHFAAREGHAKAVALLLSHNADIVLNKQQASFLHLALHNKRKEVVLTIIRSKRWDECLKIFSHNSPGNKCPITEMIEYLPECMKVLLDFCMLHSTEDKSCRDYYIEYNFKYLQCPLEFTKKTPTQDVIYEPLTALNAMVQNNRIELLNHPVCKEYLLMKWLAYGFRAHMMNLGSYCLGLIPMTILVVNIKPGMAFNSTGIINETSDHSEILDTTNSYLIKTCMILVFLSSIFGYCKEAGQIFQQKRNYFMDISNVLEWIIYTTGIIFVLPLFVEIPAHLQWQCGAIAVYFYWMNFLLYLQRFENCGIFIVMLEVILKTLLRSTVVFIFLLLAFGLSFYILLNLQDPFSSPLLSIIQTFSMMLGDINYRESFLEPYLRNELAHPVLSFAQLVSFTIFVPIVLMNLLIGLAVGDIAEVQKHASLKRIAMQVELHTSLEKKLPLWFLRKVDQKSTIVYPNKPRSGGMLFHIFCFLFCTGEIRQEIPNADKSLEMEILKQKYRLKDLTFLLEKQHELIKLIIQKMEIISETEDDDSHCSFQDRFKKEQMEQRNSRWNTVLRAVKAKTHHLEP

`O=C(c1cc(-c2ccncc2)n(-c2cc(F)c(F)c(F)c2)n1)N1CCC(n2c(=O)[nH]c3ccc(F)c(F)c32)CC1` [Compound 175]: at human TRPA1 (setting [3]), the IC50 was in the range of 1 to 5000 nM. Further, in assay [1], the “% MPE (% Maximum Possible Effect)” value is listed as 59 ± 10 (3) ^ %; the “anti-allodynic effect on paw withdrawal threshold and % MPE” value was “significant anti-allodynic effect”.
In the case of `O=C(c1cc(-c2cccnc2)n(-c2ccc(C(F)(F)F)c(F)c2)n1)N1CCC2(CC1)C(=O)NCN2c1ccc(F)cc1` [Compound 180], the IC50 at human TRPA1 (setting [3]) is 1 to 5000 nM. In assay [1], the “% MPE (% Maximum Possible Effect)” value is listed as 65 (1) %; the “anti-allodynic effect on paw withdrawal threshold and % MPE” value is on record as “significant anti-allodynic effect”.
The matching figures for `O=C(c1cc(-c2cccnc2)n(-c2cc(F)c(F)c(F)c2)n1)N1CCC(n2c(=O)[nH]c3ccc(F)c(F)c32)CC1` [Compound 198]: 1 to 5000 nM, 41 (1) % and “significant anti-allodynic effect”.
`O=C(c1cc(-c2cccnc2)n(-c2ccc(F)c(C(F)(F)F)c2)n1)N1CCC(n2c(=O)[nH]c3ccc(F)c(F)c32)CC1` [Compound 271]: in assay [2] (2 hrs post-dose, p<0.05), the “anti-allodynic effect on paw withdrawal threshold” value is given as “significant anti-allodynic effect”. In addition, the “% MPE for reversing paclitaxel induced neuropathic pain” value in assay [2] is recorded as 49.1 % MPE.
Regarding `O=C(c1cc(-c2cccnc2Cl)n(-c2ccc(C(F)(F)F)c(F)c2)n1)N1CCC2(CC1)C(=O)NCN2c1ccc(F)cc1` [Compound 317], at human TRPA1 (setting [3]), the IC50 lay within 1 to 5000 nM.
Take `O=C(c1cc(-c2cncc(F)c2)n(-c2ccc(C(F)(F)F)c(F)c2)n1)N1CCC2(CC1)C(=O)NCN2c1ccc(F)cc1` [Compound 318]: on human TRPA1 (setting [3]), the IC50 was in the range of 1 to 5000 nM.
Turning to `O=C(c1cc(-c2cncc(F)c2)n(-c2ccc(C(F)(F)F)c(F)c2)n1)N1CCC(n2c(=O)[nH]c3ccc(F)c(F)c32)CC1` [Compound 319], the IC50 at human TRPA1 (setting [3]) lay within 1 to 5000 nM.
Same read-out and setting: the figure for `O=C(c1cc(-c2ccnnc2)n(-c2ccc(C(F)(F)F)c(F)c2)n1)N1CCC2(CC1)C(=O)NCN2c1ccc(F)cc1` [Compound 320, 8-(1-(3-fluoro-4-(trifluoromethyl)phenyl)-5-(pyridazin-4-yl)-1H-pyrazole-3-carbonyl)-1-(4-fluorophenyl)-1,3,8-triazaspiro [4.5]decan-4-one] is 1 to 5000 nM; for `O=C(c1cc(-c2ccnnc2)n(-c2cc(F)c(F)c(F)c2)n1)N1CCC(n2c(=O)[nH]c3ccc(F)c(F)c32)CC1` [Compound 321] it is 1 to 5000 nM; for `O=C(c1cc(-c2cccnc2)n(-c2ccc(C(F)(F)F)cc2C(F)(F)F)n1)N1CCC2(CC1)C(=O)NCN2c1ccc(F)cc1` [Compound 322] it is 1 to 5000 nM.
For `N#Cc1cc(C(F)(F)F)ccc1-n1nc(C(=O)N2CCC3(CC2)C(=O)NCN3c2ccc(F)cc2)cc1-c1cccnc1` [Compound 323], the IC50 at human TRPA1 (setting [3]) lay in the range of 1 to 5000 nM.
On the same count and under the same terms, the value for `N#Cc1ccc(-n2nc(C(=O)N3CCC4(CC3)C(=O)NCN4c3ccc(F)cc3)cc2-c2cccnc2)c(C(F)(F)F)c1` [Compound 324] was 1 to 5000 nM; that for `N#Cc1ccc(-n2nc(C(=O)N3CCC(n4c(=O)[nH]c5ccc(F)c(F)c54)CC3)cc2-c2cccnc2)c(C(F)(F)F)c1` [Compound 325] was 1 to 5000 nM; that for `O=C(c1cc(-c2cccnc2)n(-c2ccc(I)c(C(F)(F)F)c2)n1)N1CCC2(CC1)C(=O)NCN2c1ccc(F)cc1` [Compound 326] was 1 to 5000 nM.
As for `O=C(c1cc(-c2cccnc2)n(-c2ccc(I)c(C(F)(F)F)c2)n1)N1CCC(n2c(=O)[nH]c3ccc(F)c(F)c32)CC1` [Compound 327], on human TRPA1 (setting [3]), the IC50 was in the range of 1 to 5000 nM.
For the compound `N#Cc1ccc2[nH]c(=O)n(C3CCN(C(=O)c4cc(-c5cccnc5)n(-c5ccc(C#N)c(F)c5)n4)CC3)c2c1` [Compound 328], the IC50 on human TRPA1 (setting [3]) is 1 to 5000 nM.
As to `Cc1cc(N2CNC(=O)C23CCN(C(=O)c2cc(-c4cccnc4)n(-c4ccc(C#N)c(F)c4)n2)CC3)cc(C)c1F` [Compound 329], the IC50 at human TRPA1 (setting [3]) lay in the range of 1 to 5000 nM.
Regarding `N#Cc1ccc(-n2nc(C(=O)N3C4CCC3CC3(C4)C(=O)NCN3c3ccc(F)cc3)cc2-c2cccnc2)cc1F` (centres unmarked) [Compound 330], the IC50 on human TRPA1 was in the range of 1 to 5000 nM.
In the case of `O=C(c1cc(-c2cccnc2)n(-c2ccc(F)c(C(F)(F)F)c2)n1)N1C2CCC1CC(n1c(=O)[nH]c3ccc(F)c(F)c31)C2` (centres unmarked) [Compound 331], the IC50 at human TRPA1 lay within 1 to 5000 nM.
Turning to `O=C(c1cc(-c2cccnc2)n(-c2ccc(F)c(C(F)(F)F)c2)n1)N1CCC2(CC1)C(=O)NCN2c1cc(Cl)c(F)c(Cl)c1` [Compound 332], the IC50 at human TRPA1 (setting [3]) fell in the range of 1 to 5000 nM.
With `O=C(c1cc(-c2cccnc2)n(-c2ccc(F)c(C(F)(F)F)c2)n1)N1C2CCC1CC1(C2)C(=O)NCN1c1ccc(F)cc1` (centres unmarked) [Compound 333], at human TRPA1, the IC50 lay within 1 to 5000 nM.
For the compound `NCC1(CC(=O)O)CCCCC1` [gabapentin, reference compound], the “% MPE for reversing paclitaxel induced neuropathic pain” value in assay [2] is on record as 34.8 % MPE.
